Data published in patent US12398121B2 (Nuvation Bio Inc., priority 2018, dated 2025).

Target: T1, AR in LNCaP cytosol (Homo sapiens, UniProt P10275, T878A)
T1 construct: endogenous in cells; host or cells: LNCaP cytosol
T1 sequence (P10275 1-920 T878A): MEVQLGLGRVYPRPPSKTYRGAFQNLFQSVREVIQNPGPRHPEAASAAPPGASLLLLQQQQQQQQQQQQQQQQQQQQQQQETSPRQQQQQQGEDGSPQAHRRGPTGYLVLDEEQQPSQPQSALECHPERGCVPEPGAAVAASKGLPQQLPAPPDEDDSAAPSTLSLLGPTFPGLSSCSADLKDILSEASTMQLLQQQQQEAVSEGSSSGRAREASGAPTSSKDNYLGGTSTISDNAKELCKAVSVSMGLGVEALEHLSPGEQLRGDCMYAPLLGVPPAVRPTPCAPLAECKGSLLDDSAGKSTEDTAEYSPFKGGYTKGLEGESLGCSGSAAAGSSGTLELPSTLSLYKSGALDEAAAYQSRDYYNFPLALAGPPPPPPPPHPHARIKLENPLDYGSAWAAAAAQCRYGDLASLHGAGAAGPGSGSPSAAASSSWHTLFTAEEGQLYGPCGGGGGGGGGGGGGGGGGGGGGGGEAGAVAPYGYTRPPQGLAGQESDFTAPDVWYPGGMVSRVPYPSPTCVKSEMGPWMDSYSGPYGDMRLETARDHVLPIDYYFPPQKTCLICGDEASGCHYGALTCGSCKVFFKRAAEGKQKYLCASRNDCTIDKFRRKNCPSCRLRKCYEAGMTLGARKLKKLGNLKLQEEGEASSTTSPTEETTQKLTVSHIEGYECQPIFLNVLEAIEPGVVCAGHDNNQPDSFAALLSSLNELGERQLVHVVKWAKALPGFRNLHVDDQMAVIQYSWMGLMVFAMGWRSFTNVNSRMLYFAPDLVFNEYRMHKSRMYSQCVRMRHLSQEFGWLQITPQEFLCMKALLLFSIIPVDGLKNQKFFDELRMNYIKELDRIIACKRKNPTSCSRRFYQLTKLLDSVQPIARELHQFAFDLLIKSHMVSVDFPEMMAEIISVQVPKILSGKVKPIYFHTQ
Assay: AR binding assay (3H-methyltrienolone displacement)
Conditions: not given
Method: The following methods are for evaluating the in vitro biology properties of the test articles. • a. RBC HotSpot Poly(ADP-ribose) Polymerases 1 (PARP1) and Poly(ADP-ribose) Polymerases 2 (PARP2) Assays: The assay principle is radioisotope-based filter binding assay where incorporation of radioisotope-labeled NAD^+ into the substrate captured on filter is detected after washout free NAD^+. Data were analyzed using Excel and GraphPad Prism software for IC50 curve fits. Each assay was conducted with PJ34 as a positive control. • i. PARP1 assay: Human recombinant PARP1 at a final concentration of 2.5 nM was combined with histone H4 (20 μM) and test articles at various concentrations in reaction buffer (50 mM Tris-HCL, pH 8.0, 50 mM NaCl, 10 mM MgCl2, 1 mM DTT, 1% DMSO, and 20 μg/mL activated DNA). The solution was inoculated for 20 min at room temperature and the reaction initiated by adding [adenylate-^32P]-Nicotinamide Adenine Dinucleotide, ^32P-NAD^+ at a final concentration of 10 μM. After incubation for 2 hour at room temperature, the reaction mixture was filtered and washed with 0.75% phosphoric acid for radioactivity detection. • ii. PARP2 assay: Human recombinant PARP2 at a final concentration of 2.5 nM was combined with histone H3 (20 μM) and test articles at various concentrations in reaction buffer (50 mM Tris-HCL, pH 8.0, 50 mM NaCl, 10 mM MgCl2, 1 mM DTT, 1% DMSO, and 20 μg/mL activated DNA). The solution was inoculated for 20 min at room temperature and the reaction was initiated by adding [adenylate-^32P]-Nicotinamide Adenine Dinucleotide, ^32P-NAD^+ at a final concentration of 10 μM. After incubation for 2 hour at room temperature, the reaction mixture was filtered and washed with 0.75% phosphoric acid for radioactivity detection. • b. AR binding assay: AR in LNCaP cytosol was used for determining the binding affinity of test articles and the reference compound—progesterone (Sigma, Cat: E2785, St. Louis, MO). IC50s were determined using 8 concentrations/compound. Cytosol was plated at 200 μg/well (100 μL) into a 96-well conical polypropylene plate (Agilent, Cat: 5042-1385, Santa Clara, CA) and mixed with 3 μL of test compound. After adding 100 μL of ^3H-methyltrienolone (PerkinElmer, Cat: NET590250UC, San Jose, CA), the plate was sealed and shaken at 300 rpm at 4° C. for 24 hours. Post incubation, 100 μL of radioligand adsorption buffer containing 10 mM Tris-HCl, pH 7.4; 1.5 mM EDTA; 1 mM DTT; 0.25% charcoal; 0.0025% dextran was added to individual well. Plate was shaken for 15 min at 4′C followed by centrifugation at 3000 rpm for 30 min at 4° C. 150 μL of supernatant was transferred into scint-tube (PerkinElmer, Cat: 6000192) and mixed with 2 mL of Ultima Gold Cocktail (PerkinElmer, Cat: 6013329). Radioactivity was counted using a TriCarb 2910 TR scintillation counter (PerkinElmer). Inhibition of the radioactivity by test articles were calculated using the equation below: % Inhibition=(1−(Assay well−Average_LC)/(Average_HC−Average_LC))×100%.
IC50 values were calculated and graphed using the model “log(inhibitor) vs. response—Variable slope” included in GraphPad Prism 5 (San Diego, CA). The Ki values were further calculated using the equation below where [L] was the radioligand concentration (1 nM) using in this study. Kd value was 0.332 nM. Ki=IC50/(1+[L]/Kd) c. AR transactivation: Human AR cloned into a CMV vector backbone was used for the transactivation study. HEK-293 cells were plated at 80,000 cells per well of a 24 well plate in DME+5% csFBS. Twenty four hours later, the cells were transfected using Lipofectamine (Invitrogen, Carlsbad, CA) with 0.25 μg GRE-LUC, 0.01 μg CMV-LUC (renilla luciferase) and 25 ng of the AR in OPTIMEM medium. The cells were treated 24 hrs after transfection with various ligands (10^−12 to 10^−5 M final concentrations) and luciferase assay were performed 48 hours after transfection. […]

SMILES	Ki [nM]
CC(O)(CS(=O)(=O)c1ccc(NCCn2cc(CN3CCN(C(=O)c4cc(Cc5n[nH]c(=O)c6ccccc56)ccc4F)CC3)nn2)cc1)C(=O)Nc1ccc(C#N)c(C(F)(F)F)c1 (stereo in doubt) [Compound 1.97, (S)-N-(4-cyano-3-(trifluoromethyl)phenyl)-3-(4-(2-(4-((4-(2-fluoro-5-((4-oxo-3,4-dihydrophthalazin-1-yl)methyl)benzoyl)piperazin-1-yl)methyl)-1H-1,2,3-triazol-1-yl)ethylamino)phenylsulfonyl)-2-hydroxy-2-methylpropanamide]	504
C[C@](O)(CS(=O)(=O)c1ccc(NCC(=O)N2CCN(C(=O)c3cc(Cc4n[nH]c(=O)c5ccccc45)ccc3F)CC2)cc1)C(=O)Nc1ccc(C#N)c(C(F)(F)F)c1 [Compound 1.98, (R)-N-(4-cyano-3-(trifluoromethyl)phenyl)-3-(4-(2-(4-(2-fluoro-5-((4-oxo-3,4-dihydrophthalazin-1-yl)methyl)benzoyl)piperazin-1-yl)-2-oxoethylamino)phenylsulfonyl)-2-hydroxy-2-methylpropanamide]	181
C[C@](O)(CS(=O)(=O)c1ccc(NCCCCCC(=O)N2CCN(C(=O)c3cc(Cc4n[nH]c(=O)c5ccccc45)ccc3F)CC2)cc1)C(=O)Nc1ccc(C#N)c(C(F)(F)F)c1 [Compound 1.68, (R)-N-(4-cyano-3-(trifluoromethyl)phenyl)-3-(4-(6-(4-(2-fluoro-5-((4-oxo-3,4-dihydrophthalazin-1-yl)methyl)benzoyl)piperazin-1-yl)-6-oxohexylamino)phenylsulfonyl)-2-hydroxy-2-methylpropanamide]	907
C[C@](O)(CS(=O)(=O)c1ccc(NCCN2CCN(C(=O)c3cc(Cc4n[nH]c(=O)c5ccccc45)ccc3F)CC2)cc1)C(=O)Nc1ccc(C#N)c(C(F)(F)F)c1 [Compound 1.99, (R)-N-(4-cyano-3-(trifluoromethyl)phenyl)-3-(4-(2-(4-(2-fluoro-5-((4-oxo-3,4-dihydrophthalazin-1-yl)methyl)benzoyl)piperazin-1-yl)ethylamino)phenylsulfonyl)-2-hydroxy-2-methylpropanamide]	197
C[C@]12CCC(O)C[C@@H]1CC[C@@H]1[C@@H]2CC[C@]2(C)[C@@H](OCCCCCC(=O)N3CCN(C(=O)c4cc(Cc5n[nH]c(=O)c6ccccc56)ccc4F)CC3)CC[C@@H]12 (stereo partly drawn) [Compound 1.111, 4-(4-fluoro-3-(4-(6-((5S,8R,9S,10S,13S,14S,17S)-3-hydroxy-10,13-dimethylhexadecahydro-1H-cyclopenta[a]phenanthren-17-yloxy)hexanoyl)piperazine-1-carbonyl)benzyl)phthalazin-1(2H)-one]	36
C[C@]12CCC(=O)C[C@@H]1CC[C@@H]1[C@@H]2CC[C@@]2(C)[C@H]1CC[C@@]2(O)CCCN1CCN(C(=O)c2cc(Cc3n[nH]c(=O)c4ccccc34)ccc2F)CC1 [Compound 1.119, 4-(4-fluoro-3-(4-(3-((5S,8R,9S,10S,13S,14S,17R)-17-hydroxy-10,13-dimethyl-3-oxohexadecahydro-1H-cyclopenta[a]phenanthren-17-yl)propyl)piperazine-1-carbonyl)benzyl)phthalazin-1(2H)-one]	20
CC1(C)C(=O)N(c2ccc(C#N)c(C(F)(F)F)c2)C(=S)N1c1ccc(C(=O)NCCCCCCNCc2ccc(-c3[nH]c4cc(F)cc5c4c3CCNC5=O)cc2)c(F)c1 [Compound 1.5, 4-(3-(4-cyano-3-(trifluoromethyl)phenyl)-5,5-dimethyl-4-oxo-2-thioxoimidazolidin-1-yl)-2-fluoro-N-(6-((4-(8-fluoro-1-oxo-2,3,4,6-tetrahydro-1H-azepino[5,4,3-cd]indol-5-yl)benzyl)amino)hexyl)benzamide]	291
C[C@]12CCC(=O)C[C@@H]1CC[C@@H]1[C@@H]2CC[C@@]2(C)[C@H]1CC[C@@]2(O)CCC(=O)N1CCN(C(=O)c2cc(Cc3n[nH]c(=O)c4ccccc34)ccc2F)CC1 (stereo in doubt) [Compound 1.117, 4-(4-fluoro-3-(4-(3-((5S,8R,9S,10S,13S,14S,17R)-17-hydroxy-10,13-dimethyl-3-oxohexadecahydro-1H-cyclopenta[a]phenanthren-17-yl)propanoyl)piperazine-1-carbonyl)benzyl)phthalazin-1(2H)-one]	60

Same assay, conditions: Ki=IC50/(1+[L]/Kd), [L] 1 nM, Kd 0.332 nM; read-out: AR Ki

SMILES	Ki [nM]
C[C@]12CCC(=O)C[C@@H]1CC[C@@H]1[C@@H]2CC[C@@]2(C)[C@H]1CC[C@@]2(O)c1cn(CC(=O)N2CCN(C(=O)c3cc(Cc4n[nH]c(=O)c5ccccc45)ccc3F)CC2)nn1 [Compound 1.107, 4-(4-fluoro-3-(4-(2-(4-((5S,8R,9S,10S,13S,14S,17S)-17-hydroxy-10,13-dimethyl-3-oxohexadecahydro-1H-cyclopenta[a]phenanthren-17-yl)-1H-1,2,3-triazol-1-yl)acetyl)piperazine-1-carbonyl)benzyl)phthalazin-1(2H)-one]	> 7470
C[C@]12CCC(=O)C[C@@H]1CC[C@@H]1[C@@H]2CC[C@@]2(C)[C@H]1CC[C@@]2(O)C#CC(=O)N1CCN(C(=O)c2cc(Cc3n[nH]c(=O)c4ccccc34)ccc2F)CC1 [Compound 1.116, 4-(4-fluoro-3-(4-(3-((5S,8R,9S,10S,13S,14S,17S)-17-hydroxy-10,13-dimethyl-3-oxohexadecahydro-1H-cyclopenta[a]phenanthren-17-yl)propioloyl)piperazine-1-carbonyl)benzyl)phthalazin-1(2H)-one]	4970
C[C@]12CCC(=O)C[C@@H]1CC[C@@H]1[C@@H]2CC[C@@]2(C)[C@H]1CC[C@@]2(O)C#CCN1CCN(C(=O)c2cc(Cc3n[nH]c(=O)c4ccccc34)ccc2F)CC1 [Compound 1.118, 4-(4-fluoro-3-(4-(3-((5S,8R,9S,10S,13S,14S,17S)-17-hydroxy-10,13-dimethyl-3-oxohexadecahydro-1H-cyclopenta[a]phenanthren-17-yl)prop-2-ynyl)piperazine-1-carbonyl)benzyl)phthalazin-1(2H)-one]	> 7470
